Experimental data from publication PMC12471299, “Secondary Metabolites of the Marine Sponge-Derived Fungus Aspergillus subramanianii 1901NT-1.40.2 and Their Antimicrobial and Anticancer Activities” (Marine Drugs, 2025).
Values after ≈ are worked out from the molar mass of the structure shown. Read-outs that look alike come from different tables or passages of the source.

What was measured:
Candida albicans KMM 455 = assay: Antimicrobial assay, growth inhibition (optical density); assay type: cell-based; conditions: C. albicans, 18 h; for MIC50: Candida albicans, KMM455, 18 h
Method in brief: (§1)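 MIC50 values derive from percent-of-control data: 50% reduction of growth (OD620, 18 h) or of biofilm (MTT, OD570, 18 h). Test compound ≤100 µM; 1% DMSO in PBS served as negative control.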

[1] = tested on: Staphylococcus aureus ATCC 21027; assay: as above; assay type: cell-based; conditions: S. aureus, 18 h; for MIC50: Staphylococcus aureus, ATCC21027, 18 h
Method in brief: as §1

[2] = tested on: malignant glioma T98G cells; parameters: method as in PMID 29642369; conditions: cited from earlier work
[3] = tested on: MDA-MB-231 breast cancer cells; assay: Cell viability assay (MTT); assay type: cell-based, human
Method in brief: (§2)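 Following a 24 h attachment period, rat H9c2 (3 × 10^3/well), HaCaT (1 × 10^4/well), MCF-10A and MDA-MB-231 (each 5 × 10^3/well) cells received compounds at concentrations up to 100 µM. After 24 or 48 h, MTT viability was determined as percent of DMSO-treated wells.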

[4] = tested on: MCF-7 breast cancer cells; assay: Cell viability assay (MTT); assay type: cell-based, human
[5] = tested on: MCF-10A breast epithelial cells; assay: Cell viability assay (MTT); assay type: cell-based, human; conditions: MCF10A
Method in brief: as §2

HaCaT keratinocytes = assay: Cell viability assay (MTT); assay type: cell-based, human
Method in brief: as §2

[6] = Cell viability assay (MTT); assay type: cell-based, human; conditions: human, read-out: Cytotoxicity IC50
Method in brief: as §2

S. aureus ATCC 29213 = tested on: S. aureus ATCC 29213; parameters: method as in PMID 29642369; conditions: cited from earlier work
HT29 cells = tested on: HT29 cells; parameters: method as in PMID 29642369; conditions: cited from earlier work
[7] = tested on: malignant glioma U251 cells; parameters: method as in PMID 29642369; conditions: cited from earlier work
E. faecalis ATCC 29212 = tested on: E. faecalis ATCC 29212; parameters: method as in PMID 29642369; conditions: cited from earlier work
H9c2 cardiomyocytes = assay: Cell viability assay (MTT); assay type: cell-based, rat
Method in brief: as §2

[8] = Cell viability assay (MTT); assay type: cell-based, rat; conditions: rat, H9c2 cardiomyocytes, read-out: Cytotoxicity IC50; for IC50 at 24 h: H9c2, 24 h; for IC50 at 48 h: H9c2, 48 h
Method in brief: as §2

[9] = tested on: methicillin-resistant S. aureus (MRSA); parameters: method as in PMID 29642369; conditions: cited from earlier work
[10] = MCF-7 breast cancer cells, MCF-7, 24 h
[11] = MCF-7 breast cancer cells, MCF-7, 48 h
[12] = MCF-10A breast epithelial cells, MCF10A, 24 h
[13] = MCF-10A breast epithelial cells, MCF10A, 48 h
[14] = MDA-MB-231 breast cancer cells, MDA-MB-231, 24 h
[15] = MDA-MB-231 breast cancer cells, MDA-MB-231, 48 h

COC1=C(c2c[nH]c3ccccc23)C(=O)C(CC=C(C)C)=C(c2c[nH]c3ccccc23)C1=O [Compound 6, kumbicin D]
Growth inhibition, MIC50 (Candida albicans KMM 455): 10.44 ± 1.07 µM | MIC50 (Candida albicans KMM 455): 7 to 10 µM (≈ 3.06 to 4.37 µg/mL) | Growth inhibition, MIC50 [1]: 9.38 ± 0.77 µM | MIC50 [1]: 7 to 11 µM (≈ 3.06 to 4.8 µg/mL) | effect on cells ([2]; T98G, at 100 µM): weak effects | cell viability ([3]; MDA-MB-231, 24 h, 1.0 µM): 93.6 ± 4.8 % of control | cell viability ([3]; MDA-MB-231, 24 h, 10.0 µM): 84.5 ± 6.7 % of control | cell viability ([3]; MDA-MB-231, 24 h, 100.0 µM): 32.7 ± 5.2 % of control | cell viability ([3]; MDA-MB-231, 48 h, 1.0 µM): 100.6 ± 2.2 % of control | cell viability ([3]; MDA-MB-231, 48 h, 10.0 µM): 90.8 ± 1.2 % of control | cell viability ([3]; MDA-MB-231, 48 h, 100.0 µM): 14.7 ± 0.6 % of control | cell viability ([4]; MCF-7, 24 h, 1.0 µM): 107.6 ± 6.5 % of control | cell viability ([4]; MCF-7, 24 h, 10.0 µM): 77.7 ± 7.5 % of control | cell viability ([4]; MCF-7, 24 h, 100.0 µM): 29.9 ± 0.8 % of control | cell viability ([4]; MCF-7, 48 h, 1.0 µM): 84.6 ± 9.4 % of control | cell viability ([4]; MCF-7, 48 h, 10.0 µM): 76.8 ± 3.8 % of control | cell viability ([4]; MCF-7, 48 h, 100.0 µM): 12.1 ± 2.7 % of control | cell viability ([5]; 24 h, 1.0 µM): 101.6 ± 3.1 % of control | cell viability ([5]; 24 h, 10.0 µM): 92.4 ± 3.6 % of control | cell viability ([5]; 24 h, 100.0 µM): 23.9 ± 6.2 % of control | cell viability ([5]; 48 h, 1.0 µM): 98.4 ± 4.5 % of control | cell viability ([5]; 48 h, 10.0 µM): 87.4 ± 2.7 % of control | cell viability ([5]; 48 h, 100.0 µM): 13.7 ± 3.2 % of control | cell viability (HaCaT keratinocytes; 24 h, 1.0 µM): 97.2 ± 5.7 % of control | cell viability (HaCaT keratinocytes; 24 h, 10.0 µM): 98.6 ± 3.5 % of control | cell viability (HaCaT keratinocytes; 24 h, 100.0 µM): 21.5 ± 3.3 % of control | cell viability (HaCaT keratinocytes; 48 h, 1.0 µM): 100.5 ± 3.3 % of control | cell viability (HaCaT keratinocytes; 48 h, 10.0 µM): 80.0 ± 0.1 % of control | cell viability (HaCaT keratinocytes; 48 h, 100.0 µM): 11.6 ± 3.5 % of control | IC50 at 24 h ([6]; HaCaT keratinocytes, 24 h): > 100 µM | IC50 at 48 h ([6]; HaCaT keratinocytes, 48 h): 49.4 ± 1.2 µM | IC50 at 24 h [6, 10]: 62.2 ± 2.2 µM | IC50 at 48 h [6, 11]: 47.3 ± 1.7 µM | IC50 at 24 h [6, 12]: 65.7 ± 1.9 µM | IC50 at 48 h [6, 13]: 55.6 ± 2.3 µM | IC50 at 24 h [6, 14]: 74.4 ± 0.6 µM | IC50 at 48 h [6, 15]: 58.2 ± 2 µM | antibacterial activity (S. aureus ATCC 29213): not active | effect on cells (HT29 cells; HT29, at 100 µM): weak effects | effect on cells ([7]; U251, at 100 µM): weak effects | antibacterial activity (E. faecalis ATCC 29212): not active | cell viability (H9c2 cardiomyocytes; H9c2, 24 h, 1.0 µM): 104.0 ± 12.9 % of control | cell viability (H9c2 cardiomyocytes; H9c2, 24 h, 10.0 µM): 92.9 ± 6.1 % of control | cell viability (H9c2 cardiomyocytes; H9c2, 24 h, 100.0 µM): 30.9 ± 2.9 % of control | cell viability (H9c2 cardiomyocytes; H9c2, 48 h, 1.0 µM): 99.7 ± 3.7 % of control | cell viability (H9c2 cardiomyocytes; H9c2, 48 h, 10.0 µM): 88.6 ± 2.3 % of control | cell viability (H9c2 cardiomyocytes; H9c2, 48 h, 100.0 µM): 21.6 ± 2.2 % of control | IC50 at 24 h [8]: 72.2 ± 4.1 µM | IC50 at 48 h [8]: 65.4 ± 2.1 µM | antibacterial activity ([9]; MRSA): not active

COc1c(OC)c(-c2c[nH]c3ccc(O)cc23)c(OC)c(OC)c1-c1c[nH]c2ccccc12 [Compound 8, petromurin C]
Growth inhibition, MIC50 (Candida albicans KMM 455): 34.14 ± 2.1 µM | MIC50 (Candida albicans KMM 455): 26 to 52 µM (≈ 11.6 to 23.1 µg/mL) | Growth inhibition, MIC50 [1]: 26.74 ± 1.98 µM | MIC50 [1]: 26 to 52 µM (≈ 11.6 to 23.1 µg/mL) | effectiveness ([2]; T98G cells): not effective | cell viability ([3]; MDA-MB-231, 24 h, 1.0 µM): 89.4 ± 2.4 % of control | cell viability ([3]; MDA-MB-231, 24 h, 10.0 µM): 103.6 ± 2.2 % of control | cell viability ([3]; MDA-MB-231, 24 h, 100.0 µM): 63.7 ±4.8 % of control | cell viability ([3]; MDA-MB-231, 48 h, 1.0 µM): 102.9 ± 0.5 % of control | cell viability ([3]; MDA-MB-231, 48 h, 10.0 µM): 89.5 ± 3.1 % of control | cell viability ([3]; MDA-MB-231, 48 h, 100.0 µM): 38.6 ± 1.7 % of control | cell viability ([4]; MCF-7, 24 h, 1.0 µM): 105.4 ± 5.9 % of control | cell viability ([4]; MCF-7, 24 h, 10.0 µM): 92.8 ± 3.0 % of control | cell viability ([4]; MCF-7, 24 h, 100.0 µM): 53.7 ± 6.8 % of control | cell viability ([4]; MCF-7, 48 h, 1.0 µM): 77.7 ± 3.7 % of control | cell viability ([4]; MCF-7, 48 h, 10.0 µM): 70.6 ± 8.5 % of control | cell viability ([4]; MCF-7, 48 h, 100.0 µM): 28.6 ± 4.3 % of control | cell viability ([5]; 24 h, 1.0 µM): 91.9 ± 9.5 % of control | cell viability ([5]; 24 h, 10.0 µM): 81.4 ± 1.0 % of control | cell viability ([5]; 24 h, 100.0 µM): 52.0 ± 4.0 % of control | cell viability ([5]; 48 h, 1.0 µM): 95.3 ± 3.4 % of control | cell viability ([5]; 48 h, 10.0 µM): 92.1 ± 2.1 % of control | cell viability ([5]; 48 h, 100.0 µM): 45.7 ± 6.6 % of control | cell viability (HaCaT keratinocytes; 24 h, 1.0 µM): 102.7 ± 7.7 % of control | cell viability (HaCaT keratinocytes; 24 h, 10.0 µM): 93.1 ± 6.9 % of control | cell viability (HaCaT keratinocytes; 24 h, 100.0 µM): 64.3 ± 1.9 % of control | cell viability (HaCaT keratinocytes; 48 h, 1.0 µM): 95.8 ± 1.9 % of control | cell viability (HaCaT keratinocytes; 48 h, 10.0 µM): 97.7 ± 1.4 % of control | cell viability (HaCaT keratinocytes; 48 h, 100.0 µM): 36.8 ± 7.0 % of control | IC50 at 24 h ([6]; HaCaT keratinocytes, 24 h): > 100 µM | IC50 at 48 h ([6]; HaCaT keratinocytes, 48 h): 80.5 ± 1.8 µM | IC50 at 24 h [6, 10]: > 100 µM | IC50 at 48 h [6, 11]: 61.5 ± 1.2 µM | IC50 at 24 h [6, 12]: ≥ 100 µM | IC50 at 48 h [6, 13]: 91 ± 4.1 µM | IC50 at 24 h [6, 14]: > 100 µM | IC50 at 48 h [6, 15]: 79.9 ± 1.2 µM | antibacterial activity (S. aureus ATCC 29213): did not inhibit the growth | IC50 (HT29 cells; read-out: IC50, cell viability): 34.8 µM | effectiveness ([7]; U251 cells): not effective | antibacterial activity (E. faecalis ATCC 29212): did not inhibit the growth | cell viability (H9c2 cardiomyocytes; H9c2, 24 h, 1.0 µM): 100.9 ± 1.7 % of control | cell viability (H9c2 cardiomyocytes; H9c2, 24 h, 10.0 µM): 95.9 ± 2.3 % of control | cell viability (H9c2 cardiomyocytes; H9c2, 24 h, 100.0 µM): 57.4 ± 8.5 % of control | cell viability (H9c2 cardiomyocytes; H9c2, 48 h, 1.0 µM): 101.6 ± 2.2 % of control | cell viability (H9c2 cardiomyocytes; H9c2, 48 h, 10.0 µM): 79.8 ± 4.6 % of control | cell viability (H9c2 cardiomyocytes; H9c2, 48 h, 100.0 µM): 55.8 ± 5.5 % of control | IC50 at 24 h [8]: > 100 µM | IC50 at 48 h [8]: > 100 µM | effect with oxacillin ([9]; MRSA S. aureus 66/1, with oxacillin): synergistic effect
